This is an account of results in US20060240474A1, “Peptides able to switch between two structural states and their use” (UNIVERSITY OF SUSSEX, priority 2002, published 2006).

Where a SMILES comes first, the peptide text is derived from it. Bridges are numbered along the chain shown (N, C = ends). Where no end group is shown, it is not given here. The star is where a group is joined. Cam = NC(=O)C*

A short description of data set [1]: Thermal unfolding followed by CD spectroscopy. In kind it is physicochemical. The following applies: comparator named in the value. How it is done: (§1) Circular dichroism spectroscopy. CD measurements were made using a JASCO J-715 spectropolarimeter fitted with a Peltier temperature controller. Peptide solutions were prepared in 25 mM potassium phosphate buffer at pH 7 and were examined in 1 mm or 1 cm quartz cuvettes (with stirring). Spectra were recorded at 5° C. using 1 nm intervals, a 1 nm bandwidth and 4 sec response time. Thermal unfolding curves were recorded through 1° C. min^−1 ramps using a 2 nm bandwidth, averaging the signal for 16 s every 1° C. intervals. After baseline correction, ellipticities in mdeg were converted to molar ellipticities (deg cm^2 dmol-res-^−1) by normalising for the concentration of peptide bonds.

A short description of data set [2]: Circular dichroism spectroscopy (helicity). In kind it is physicochemical. The following applies: pH 7; comparator named in the value. How it is done:
as §1

Data set [3] is described as follows: Conformational switching of oxidised CSP-3 to the reduced form, CD time scan at 222 nm. In kind it is physicochemical. The conditions noted are these: 20-fold excess (2 mM). As for the experimental part:
The molar ellipticity at 222 nm was recorded. To induce the switch of the peptide from its oxidised to its reduced form a reducing agent for the disulphide bond was added. Two reducing agents were used for comparison, DTE and β-mercaptoethanol, in 20-fold excess (2 mM). […] The time taken to initiate the scan after addition of reducing agent was noted. […] A wavelength scan (190-260 nm) was run for each sample once the switch experiment was complete to record the spectrum of the reduced peptide. The data obtained from the time course reaction was analysed using the data analysis program Origin (v. 11) (see FIG. 5) A single exponential curve for a first order reaction has been fitted to the data from a switch experiment, using the data analysis program Origin. The equation for the curve is: y=Ae^−kt+B where A=amplitude of signal • B=[…] • k=rate constant • t=time […]

A short description of data set [4]: Sedimentation equilibrium analytical ultracentrifugation (monomer-dimer equilibrium). In kind it is physicochemical. The following applies: monomer-dimer fit, 5° C., pH 7; read-out: KD (95% confidence limits). How it is done:
Sedimentation equilibrium experiments were conducted at 5° C. in a Beckman-Optima XL-I analytical ultracentrifuge fitted with an An-60 Ti rotor. A […] peptide solution at […] in 25 mM K phosphate buffer pH 7 containing 0.1 M KCl was equilibrated for 48 h at speeds of 40 000, 47 500/50 000 and 55 000/60 000 rpm. […] The molecular weights (Table 2) and partial specific volumes (range 0.7417 to 0.7461) of the peptides were calculated from their amino-acid sequences, and the viscosity of the buffer at 5° C. was taken to be […].

Data set [5] deals with the molecule itself. The data set can be described thus: sedimentation equilibrium AUC, poor monomer-dimer fit, 5 C (homodimerisation). How it is done:
(§2) Sedimentation equilibrium experiments were conducted at 5° C. in a Beckman-Optima XL-I analytical ultracentrifuge fitted with an An-60 Ti rotor. A […] peptide solution at […] in 25 mM K phosphate buffer pH 7 containing 0.1 M KCl was equilibrated for 48 h at speeds of 40 000, 47 500/50 000 and 55 000/60 000 rpm. Data were fitted simultaneously assuming either a single ideal species or a monomer-dimer equilibrium and fixed monomer molecular weight, using routines in the Beckman-Optima XL-A/XLI-I data analysis software (v4.0). The molecular weights (Table 2) and partial specific volumes (range 0.7417 to 0.7461) of the peptides were calculated from their amino-acid sequences, and the viscosity of the buffer at 5° C. was taken to be […].
However, the reduced form of the peptide, CSP-2r, was only partially folded as judged from CD spectra (consistent with only ˜20% helix) (see FIG. 3A). […] (see FIG. 3B). […] The data fitted best assuming a single ideal species, and returned a molecular weight close to that expected for monomer (see Table 2). Fits to monomer-dimer were poor and gave weak dissociation constants in the 10-100 mM range.

Data set [6] deals with the molecule itself. The data set can be described thus: sedimentation equilibrium (AUC), self-association. How it is done: as §2

Turning to `CC[C@H](C)[C@@H]1NC(=O)[C@H](CCCCN)NC(=O)[C@H](CCC(N)=O)NC(=O)[C@H](CCC(=O)O)NC(=O)[C@H](CC(C)C)NC(=O)[C@H](C)NC(=O)[C@H](CCCNC(=N)N)NC(=O)[C@H]([C@@H](C)CC)NC(=O)[C@H](CCCCN)NC(=O)[C@H](C)NC(=O)[C@H](CCC(N)=O)NC(=O)[C@H](CCCCN)NC(=O)[C@H](C)NC(=O)[C@H](CCC(N)=O)NC(=O)[C@H](CCCCN)NC(=O)[C@H](CC(C)C)NC(=O)[C@H](CCCNC(=N)N)NC(=O)[C@H](C)NC(=O)[C@H]([C@@H](C)CC)NC(=O)[C@H](CCC(=O)O)NC(=O)[C@H](Cc2ccc(O)cc2)NC(=O)[C@H](CCCCN)NC(=O)[C@H](CC(C)C)NC(=O)[C@H](C)NC(=O)[C@H](CCCNC(=N)N)NC(=O)[C@H]([C@@H](C)CC)NC(=O)[C@H](CCC(=O)O)NC(=O)CNC(=O)CNC(=O)[C@@H](N)CSSC[C@@H](C(=O)O)NC(=O)CNC(=O)CNC(=O)[C@H](CCC(=O)O)NC(=O)[C@H](CC(C)C)NC(=O)[C@H](C)NC(=O)[C@H](C)NC1=O` [CSP-3o] (H-CGGEIRALKYEIARLKQAKQAKIRALEQKIAALEGGC-OH; disulfide 1-37; N-terminus and C-terminus assumed), the “thermal stability in words” value in data set [1] was “marginally improved helicity and thermal stability over CSP-2o”. Further, the “helicity compared with other designs (CD signal at 222 nm)” value in data set [2] is “marginally improved helicity and thermal stability over CSP-2o”. The figures for the “time taken for reduction to complete” value in data set [3] (with DTE) and in data set [3] (with βME) were 75 min and 180 min, respectively. In the case of “CGGEIRALKYEIARLKQ----KKRALEQKIAALEGGC [CSP-1r]”, the dissociation constant Kd in data set [4] was 0.033 mM.

B1: CSP-2r (reduced and alkylated) (peptide)
peptide: C(Cam)GGEIRALKYEIARLKQGGGGKKRALEQKIAALEGGC(Cam)
notes: CSP-1 with a tetraglycine insert; also called design iteration 2, reduced & alkylated; CSP-4a (Maya's nomenclature)
Take B1: the Kd in data set [5] is 10 to 100 mM.

B2: CSP-2o (intra-molecularly oxidised) (peptide)
peptide: CGGEIRALKYEIARLKQGGGGKKRALEQKIAALEGGC
modifications: disulfide 1-37
notes: also called design iteration 2, oxidised; CSP-4o (Maya's nomenclature)
Consider B2, for which the binding result in data set [6] was “no binding”.

The term Kd denotes the equilibrium constant for the complex coming apart.
